We go through one sequence from US20240415919A1, “COMPOSITIONS AND METHODS FOR TREATMENT OF AUTOIMMUNE DISORDERS AND CANCER” (Dana-Farber Cancer Institute, Inc., priority 2021, published 2024).

One experiment relates to FL9.2 T cells. In words: FL9 peptide immunization of hosts adoptively transferred with FL9.2 T cells. The experiment is classed as in vivo, mouse. Conditions: i.p. immunization with peptide in CFA; CD45.1+ B6 or TCRα-/- hosts. On the procedure:
CD45.1+B6 hosts were adoptively transferred with FL9.2 T cells and immunized i.p. with FL9 in CFA or no peptide (CFA alone) on day 0. Three days later, activation (CD69) proliferation of FL9.2 T cells (Ki67) was measured.
CD45.1^+ B6 or TCRα^−/− mice were transferred with CFSE labelled 2×10^6 FL9.2 Tg T cells followed by i.p. immunization with 100 μg FL9 or FL9-68 peptides in CFA. Proliferation and activation of FL9.2 Tg T cells in the adoptive hosts were analzyed by assessing CFSE dilution, Ki67 and CD69 expression at day 3 and 6 after transfer.
CD45.1^+B6 or TCRα^−/− mice were transferred with CFSE labelled 2×10^6 FL9.2 Tg T cells followed by i.p. immunization with 100 μg FL9 or FL9-68 peptides in CFA. Proliferation and activation of FL9.2 Tg T cells in the adoptive hosts were analzyed by assessing CFSE dilution, Ki67 and CD69 expression at day 3 and 6 after transfer.

The test system of experiment [1] is fully-mismatched kidney transplants. In words: BALB/c to B6 kidney transplantation with FL9-SA vaccination. In kind it is in vivo, mouse. As to the method: The left kidney of BALB/c mice (H-2^d) was recovered using a full-length ureter and transplanted into a B6 host (H-2^b). The ureter of the remaining native kidney was then ligated on post-operative day 2-4 to inhibit native kidney function. Surgical success was determined if mice survived seven days post-surgery (POD). Transplanted B6 hosts were treated intraperitoneally with FL9-SA (50 μg), or PBS emulsified in Adjuvant (Addavax™), once a week starting POD2. On day 20 following kidney transplantation (n=5-7/group), allograft draining lymphoid tissues were assessed for FL9-specific Treg (Qa-1-FL9 Tet^+), Tfh, GC B and plasma cells, DSA levels in sera, capillary C4d deposition and gross anatomy of kidney allografts. Survival of kidney allografts was measured by survival of recipients with absence of native kidney function.

The subject of experiment [2] is FL9 T cells. As to the kind of experiment: In vitro FL9 T cell proliferation and killing of activated CD4 cells. The experiment is classed as cell-based.
For experiment [3], the system named is FL9 T cells. As to the kind of experiment: Activation (CD69) of FL9 TCR+ hybridoma / FL9 T cells by peptide-loaded EL4 (Qa-1+) cells. The experiment is classed as cell-based, mouse. The note with it: 0, 1, 3 and 10 μg/ml, compared with cognate FL9 self-peptide. On the procedure: FIG. 4 provides a graphical representation showing a Qa-1-peptide yeast library, which identified peptides with superagonistic activity. FL9 T cells were stimulated with EL4 (Qa-1+) cells in the presence of surrogate peptides selected from peptide-Qa-1 yeast library for 3 days. Activation status of FL9 T cells was measured by CD69 expression.
FIG. 58A-C and FIG. 58D-E provides representation showing identification of superagonists for FL9 T cells. FIG. 58(A) provides a schematic showing a library composed of 96 FL9 peptide variants (crude peptides) was generated by aa mutagenesis at the Qa-1 anchoring positions (p2, p3, p6, p^7 and p9). FL9 TCR^+ hybridomas were incubated with EL4 cells (Qa-1^+) loaded with each FL9 peptide variant for 12 hrs and CD69 expression and TCR downregulation were measured as an indication of TCR stimulation. […] Expression of Vα3.2 and Vβ5 on EL4 cells (trogocytosis) was measured (right). […] Dose-dependent activation of FL9 T cells was measured by culturing FL9.2 T cells with EL4 (Qa-1^+) at various concentrations of indicated peptides (0, 1, 3 and 10 μg/ml). […] Six days later, proliferation of FL9.2 T cells (CD45.2^+Vα3.2^+VD5^+) was measured by CFSE dilution (left). CD45.1^+ B6 mice were immunized with Ova323-339 peptide in CFA on day 6 and the frequency of I-A^b/Ova323-339 Tet^+ CD4 cells in activated (CD44^+) CD4 cells was analyzed on day 14. […]

“Also recorded” adds a separate entry of the source. A value given as a limit tells only on which side of the number the result lay.

On to “FYAEATLML [FL9-68, FL9 peptide variant containing a P→L substitution at pos 7; superagonist for CD8 Treg]”, for which the “in vivo activation/proliferation of transferred FL9 TCR+ CD8 T cells” value in the experiment on FL9.2 T cells was “activated FL9 TCR^+ CD8 T cells; also recorded: activates FL9 T cells in vivo”. Also, the “CD44+ CD4 T-cell memory responses to irradiated donor lymphocytes” value in experiment [1] (CD4+ T cells from B6 hosts) was “reduced CD44^+ CD4 T-cell memory responses”. Besides, the “increase in FL9-specific Treg measured by FL9-Qa-1 tetramers” value in experiment [1] (allograft-draining lymph nodes, day 20 after kidney transplantation) is more than 7 fold. Also, the “mean survival time of kidney allograft” value in experiment [1] (controls 20.5 days) is 40 days. Besides, the “donor-specific antibody (DSA)” value in experiment [1] (kidney graft recipients) was “markedly reduced donor specific Ab generation; also recorded: significant decrease in DSA”. Further, in experiment [1] (kidney graft recipients, vs IFA alone), the “GC response: frequency of Tfh, activated GC B and plasma cells” value is reported as “markedly reduced the GC response”. For the same sequence, in experiment [1] (mouse, in vivo), the “C4d deposition in peritubular capillaries of kidney allografts” value is on record as “reduced C4d deposition”. For the same sequence, the “proliferation of FL9 T cells and killing of activated CD4 cells” value in the experiment with FL9 T cells [2] is “promoted proliferation of FL9 T cells leading to enhanced killing of activated CD4 cells”. For the same sequence, the “stimulatory activity for FL9 T cells / FL9.2 and FL9.8 TCRs (CD69 expression)” value with FL9 T cells [3] is “superior ability to activate FL9 T cells; also recorded: superior ability to stimulate FL9 T cells; also recorded: markedly enhanced dose-dependent stimulatory activity; also recorded: significantly enhanced stimulating activity in vitro and in vivo; also recorded: significantly enhanced stimulatory activity in vitro and in vivo”.
